# System: MV-4-11 cells
# Test: Gene expression microarray analysis (Affymetrix PrimeView) and GSEA
# Assay type: cell-based, human
# Parameters: RFU PODN (11730768_x_at) / Fold change /veh PODN (11730768_x_at) / RFU LINC00158 (11744669_a_at) / Fold change /veh LINC00158 (11744669_a_at) / RFU DUSP10 (11751237_a_at) / Fold change /veh DUSP10 (11751237_a_at) / RFU ID3 (11757404_x_at) / Fold change /veh ID3 (11757404_x_at) / RFU PLEKHG5 (11737974_s_at) / Fold change /veh PLEKHG5 (11737974_s_at) / RFU LRRC4B (11730491_at) / Fold change /veh LRRC4B (11730491_at) / RFU GIMAP4 (11747438_a_at) / Fold change /veh GIMAP4 (11747438_a_at) / RFU KRT8 (11758183_x_at) / Fold change /veh KRT8 (11758183_x_at) / RFU CNN1 (11734310_a_at) / Fold change /veh CNN1 (11734310_a_at) / RFU VPS37D (11726825_at) / Fold change /veh VPS37D (11726825_at) / RFU C10orf10 (11716522_x_at) / Fold change /veh C10orf10 (11716522_x_at) / RFU KIR2DL2 /// KIR2DL4 /// KIR2DL5A /// KIR2DL5B /// KIR2DS1 /// KIR2DS2 /// KIR2DS3 /// KIR2DS4 /// KIR3DL3 /// KIR3DL3 /// KIR3DS1 (11738374_at) / Fold change /veh KIR2DL2 /// KIR2DL4 /// KIR2DL5A /// KIR2DL5B /// KIR2DS1 /// KIR2DS2 /// KIR2DS3 /// KIR2DS4 /// KIR3DL3 /// KIR3DL3 /// KIR3DS1 (11738374_at) / RFU C1QL1 (11718748_at) / Fold change /veh C1QL1 (11718748_at) / RFU TMPRSS4 (11747572_a_at) / Fold change /veh TMPRSS4 (11747572_a_at) / RFU HAMP (11756126_x_at) / Fold change /veh HAMP (11756126_x_at) / RFU RNFT2 (11725882_a_at) / Fold change /veh RNFT2 (11725882_a_at) / RFU NR4A2 (11747474_a_at) / Fold change /veh NR4A2 (11747474_a_at) / RFU ABCC12 (11746883_a_at) / Fold change /veh ABCC12 (11746883_a_at) / RFU TMEM136 (11760407_x_at) / Fold change /veh TMEM136 (11760407_x_at) / RFU CLDN22 /// WWC2 (11732394_at) / Fold change /veh CLDN22 /// WWC2 (11732394_at) / RFU HLA-DPB1 (11760878_x_at) / Fold change /veh HLA-DPB1 (11760878_x_at) / RFU SPINT1 (11716480_a_at) / Fold change /veh SPINT1 (11716480_a_at) / RFU GAP43 (11754022_s_at) / Fold change /veh GAP43 (11754022_s_at) / RFU A4GNT (11735810_at) / Fold change /veh A4GNT (11735810_at) / RFU PRB3 (11715151_x_at) / Fold change /veh PRB3 (11715151_x_at) / RFU TUBB4B (11761932_at) / Fold change /veh TUBB4B (11761932_at) / RFU CAPN14 (11732068_a_at) / Fold change /veh CAPN14 (11732068_a_at) / RFU TMCC2 (11721928_a_at) / Fold change /veh TMCC2 (11721928_a_at) / RFU IRGQ (11745062_a_at) / Fold change /veh IRGQ (11745062_a_at) / RFU FAM174B (11720279_a_at) / Fold change /veh FAM174B (11720279_a_at) / RFU TMPRSS4 (11748680_a_at) / Fold change /veh TMPRSS4 (11748680_a_at) / RFU FAM212B (11763350_a_at) / Fold change /veh FAM212B (11763350_a_at) / RFU PLEKHG5 (11743358_a_at) / Fold change /veh PLEKHG5 (11743358_a_at) / RFU ZSCAN30 (11745921_a_at) / Fold change /veh ZSCAN30 (11745921_a_at) / RFU CMKLR1 (11741424_a_at) / Fold change /veh CMKLR1 (11741424_a_at) / RFU LOC101060620 /// MAPK8IP1 (11723275_at) / Fold change /veh LOC101060620 /// MAPK8IP1 (11723275_at) / RFU SPTSSB (11747773_x_at) / Fold change /veh SPTSSB (11747773_x_at) / RFU PRSS12 (11739890_at) / Fold change /veh PRSS12 (11739890_at) / RFU BIN1 (11741810_x_at) / Fold change /veh BIN1 (11741810_x_at) / RFU WNT11 (11732464_a_at) / Fold change /veh WNT11 (11732464_a_at) / RFU C10orf10 (11716521_a_at) / Fold change /veh C10orf10 (11716521_a_at) / RFU C5orf56 (11738089_at) / Fold change /veh C5orf56 (11738089_at) / RFU CYB561 (11721691_x_at) / Fold change /veh CYB561 (11721691_x_at) / RFU ANKRD19P (11752326_a_at) / Fold change /veh ANKRD19P (11752326_a_at) / RFU OR2T12 /// OR2T33 /// OR2T8 (11738714_s_at) / Fold change /veh OR2T12 /// OR2T33 /// OR2T8 (11738714_s_at) / RFU VCAN (11748164_a_at) / Fold change /veh VCAN (11748164_a_at) / RFU JSRP1 (11732532_at) / Fold change /veh JSRP1 (11732532_at) / RFU KRTAP10-11 (11738290_x_at) / Fold change /veh KRTAP10-11 (11738290_x_at) / RFU MYO3A (11730013_a_at) / Fold change /veh MYO3A (11730013_a_at) / RFU EBF3 (11725865_a_at) / Fold change /veh EBF3 (11725865_a_at) / RFU CAMK2N1 (11719241_x_at) / Fold change /veh CAMK2N1 (11719241_x_at) / RFU C5orf56 (11738088_a_at) / Fold change /veh C5orf56 (11738088_a_at) / RFU OLFML3 (11715873_a_at) / Fold change /veh OLFML3 (11715873_a_at) / RFU LOC100653217 /// NTM (11731650_a_at) / Fold change /veh LOC100653217 /// NTM (11731650_a_at) / RFU MAPK11 (11762145_a_at) / Fold change /veh MAPK11 (11762145_a_at) / RFU FIZ1 (11724087_x_at) / Fold change /veh FIZ1 (11724087_x_at) / RFU OASL (11726364_x_at) / Fold change /veh OASL (11726364_x_at) / RFU SOX15 (11748057_x_at) / Fold change /veh SOX15 (11748057_x_at) / RFU CD79A (11719716_a_at) / Fold change /veh CD79A (11719716_a_at) / RFU HIST1H1D (11736915_at) / Fold change /veh HIST1H1D (11736915_at) / RFU CASKIN2 (11723855_a_at) / Fold change /veh CASKIN2 (11723855_a_at) / RFU LOC730098 (11760151_x_at) / Fold change /veh LOC730098 (11760151_x_at) / RFU OR4N2 (11742367_at) / Fold change /veh OR4N2 (11742367_at) / RFU PRRT2 (11749266_a_at) / Fold change /veh PRRT2 (11749266_a_at) / RFU SNX32 (11753110_a_at) / Fold change /veh SNX32 (11753110_a_at) / RFU CDHR5 (11726645_a_at) / Fold change /veh CDHR5 (11726645_a_at) / RFU RCAN1 (11760418_a_at) / Fold change /veh RCAN1 (11760418_a_at) / RFU FAM167A (11723789_a_at) / Fold change /veh FAM167A (11723789_a_at) / RFU FAM26E (11764081_at) / Fold change /veh FAM26E (11764081_at) / RFU ISYNA1 (11749810_s_at) / Fold change /veh ISYNA1 (11749810_s_at) / RFU ACY1 (11761880_at) / Fold change /veh ACY1 (11761880_at) / RFU 11764098_at / Fold change /veh 11764098_at / RFU SAMD14 (11745864_x_at) / Fold change /veh SAMD14 (11745864_x_at) / RFU NPB (11741838_a_at) / Fold change /veh NPB (11741838_a_at) / RFU TMPRSS6 (11731388_a_at) / Fold change /veh TMPRSS6 (11731388_a_at) / RFU KRTAP10-2 (11738614_at) / Fold change /veh KRTAP10-2 (11738614_at) / RFU ARHGAP8 /// PRR5-ARHGAP8 (11727945_x_at) / Fold change /veh ARHGAP8 /// PRR5-ARHGAP8 (11727945_x_at) / RFU KRTAP5-7 /// NADSYN1 (11734609_at) / Fold change /veh KRTAP5-7 /// NADSYN1 (11734609_at) / RFU RASL12 (11751679_a_at) / Fold change /veh RASL12 (11751679_a_at) / RFU CDKN2B (11736163_a_at) / Fold change /veh CDKN2B (11736163_a_at) / RFU PRF1 (11729649_at) / Fold change /veh PRF1 (11729649_at) / RFU, ZNF638 /// ZNF638-IT1 / Fold change vs veh, ZNF638 /// ZNF638-IT1 / RFU, PANK3 / Fold change vs veh, PANK3 / RFU, SH3YL1 / Fold change vs veh, SH3YL1 / RFU, ZEB2 / Fold change vs veh, ZEB2 / RFU, NRIP1 / Fold change vs veh, NRIP1 / RFU, PTTG1IP / Fold change vs veh, PTTG1IP / RFU, CAPN2 / Fold change vs veh, CAPN2 / RFU, MED14 / Fold change vs veh, MED14 / RFU, SNORA58 / Fold change vs veh, SNORA58 / RFU, C1orf63 / Fold change vs veh, C1orf63 / RFU, LRRFIP1 / Fold change vs veh, LRRFIP1 / RFU, NDUFAF7 / Fold change vs veh, NDUFAF7 / RFU, SLC12A2 / Fold change vs veh, SLC12A2 / RFU, IBTK / Fold change vs veh, IBTK / RFU, ESF1 / Fold change vs veh, ESF1 / Fold change vs veh, TMEM50B / RFU, TAOK1 / Fold change vs veh, TAOK1 / RFU, ACBD3 / Fold change vs veh, ACBD3 / RFU, TMA16 / Fold change vs veh, TMA16 / RFU, RWDD3 / Fold change vs veh, RWDD3 / RFU, BCAT1 / Fold change vs veh, BCAT1 / RFU, EDEM3 / Fold change vs veh, EDEM3 / RFU, TMEM33 / Fold change vs veh, TMEM33 / RFU, WDR75 / Fold change vs veh, WDR75 / RFU, AHCTF1 / Fold change vs veh, AHCTF1 / RFU, TFRC / Fold change vs veh, TFRC / RFU, ZDHHC17 / Fold change vs veh, ZDHHC17 / RFU, NOM1 / Fold change vs veh, NOM1 / RFU, ARL8B / Fold change vs veh, ARL8B / RFU, ZBTB11 / Fold change vs veh, ZBTB11 / RFU, TAMM41 / Fold change vs veh, TAMM41 / RFU, KIAA1704 /// LOC100996395 / Fold change vs veh, KIAA1704 /// LOC100996395 / RFU, ING1 / Fold change vs veh, ING1 / RFU, TRMT61B / Fold change vs veh, TRMT61B / RFU, FUBP3 / Fold change vs veh, FUBP3 / RFU, TP53 / Fold change vs veh, TP53 / RFU, TNKS2 / Fold change vs veh, TNKS2 / RFU, ZFP14 / Fold change vs veh, ZFP14 / RFU, ACTR2 / Fold change vs veh, ACTR2 / RFU, PPP3R1 / Fold change vs veh, PPP3R1 / RFU, PIK3R1 / Fold change vs veh, PIK3R1 / RFU, HNRNPA1 / Fold change vs veh, HNRNPA1 / RFU, RNF170 / Fold change vs veh, RNF170 / RFU, ZNF28 / Fold change vs veh, ZNF28 / RFU, RNGTT / Fold change vs veh, RNGTT / RFU, OGT / Fold change vs veh, OGT / RFU, BRD1 / Fold change vs veh, BRD1 / RFU, MARS / Fold change vs veh, MARS / RFU, ZNF655 / Fold change vs veh, ZNF655 / RFU, FAHD1 / Fold change vs veh, FAHD1 / RFU, BDP1 / Fold change vs veh, BDP1 / RFU, LRRCC1 / Fold change vs veh, LRRCC1 / RFU, ARID1A / Fold change vs veh, ARID1A / RFU, ZNF146 / Fold change vs veh, ZNF146 / RFU, ZNF330 / Fold change vs veh, ZNF330 / RFU, GPN3 / Fold change vs veh, GPN3 / RFU, C9orf123 / Fold change vs veh, C9orf123 / RFU, N4BP2L2 / Fold change vs veh, N4BP2L2 / RFU, ARFIP1 / Fold change vs veh, ARFIP1 / RFU, FAM179B / Fold change vs veh, FAM179B / RFU, BCL10 / Fold change vs veh, BCL10 / RFU, UHRF1BP1L / Fold change vs veh, UHRF1BP1L / RFU, BET1 / Fold change vs veh, BET1 / RFU, CNOT2 / Fold change vs veh, CNOT2 / RFU, ZNF268 / Fold change vs veh, ZNF268 / Fold change vs veh, ZNF507 / RFU, DGCR2 / Fold change vs veh, DGCR2 / RFU, WDSUB1 / Fold change vs veh, WDSUB1 / Fold change vs veh, HSP90B1 /// MIR3652 / RFU, ADSS / Fold change vs veh, ADSS / RFU, GK / Fold change vs veh, GK / RFU, ZNF148 / Fold change vs veh, ZNF148 / RFU, TAF9 / Fold change vs veh, TAF9 / RFU, SLC1A5 / Fold change vs veh, SLC1A5 / RFU, SLMO2 / Fold change vs veh, SLMO2 / RFU, ABCC4 / Fold change vs veh, ABCC4 / RFU, LOC101060439 /// RAP1B / Fold change vs veh, LOC101060439 /// RAP1B / RFU, RFX7 / Fold change vs veh, RFX7 / RFU, GTPBP10 / Fold change vs veh, GTPBP10 / RFU, CNEP1R1 / Fold change vs veh, CNEP1R1 / RFU, BIVM-ERCC5 /// ERCC5 / Fold change vs veh, BIVM-ERCC5 /// ERCC5 / RFU, ILF3 / Fold change vs veh, ILF3 / RFU 11762660_at / Fold change /veh 11762660_at / RFU VCAN (11757783_s_at) / Fold change /veh VCAN (11757783_s_at) / RFU DDX43 (11728927_at) / Fold change /veh DDX43 (11728927_at) / RFU KRT8 (11758188_x_at) / Fold change /veh KRT8 (11758188_x_at) / RFU NKD1 (11759106_at) / Fold change /veh NKD1 (11759106_at) / RFU SRD5A1 (11742802_a_at) / Fold change /veh SRD5A1 (11742802_a_at) / RFU TPSAB1 /// TPSB2 (11721975_s_at) / Fold change /veh TPSAB1 /// TPSB2 (11721975_s_at) / RFU GSTM3 (11746129_a_at) / Fold change /veh GSTM3 (11746129_a_at) / RFU IL23R (11737362_x_at) / Fold change /veh IL23R (11737362_x_at) / RFU TMEM51 (11727254_a_at) / Fold change /veh TMEM51 (11727254_a_at) / RFU PIWIL2 (11732686_x_at) / Fold change /veh PIWIL2 (11732686_x_at) / RFU ORM1 (11744905_x_at) / Fold change /veh ORM1 (11744905_x_at) / RFU CCDC152 (11743942_at) / Fold change /veh CCDC152 (11743942_at) / RFU ECM1 (11717891_a_at) / Fold change /veh ECM1 (11717891_a_at) / RFU IL23R (11748794_a_at) / Fold change /veh IL23R (11748794_a_at) / RFU TNFAIP8L3 (11732012_x_at) / Fold change /veh TNFAIP8L3 (11732012_x_at) / RFU MBOAT4 (11741988_at) / Fold change /veh MBOAT4 (11741988_at) / RFU 11764193_at / Fold change /veh 11764193_at / RFU TMEM53 (11763286_at) / Fold change /veh TMEM53 (11763286_at) / RFU MAGEB2 (11727129_at) / Fold change /veh MAGEB2 (11727129_at) / RFU TMEM200A (11744735_a_at) / Fold change /veh TMEM200A (11744735_a_at) / RFU CCDC152 (11751479_a_at) / Fold change /veh CCDC152 (11751479_a_at) / RFU FAM211A (11726209_a_at) / Fold change /veh FAM211A (11726209_a_at) / RFU RGS16 (11746705_a_at) / Fold change /veh RGS16 (11746705_a_at) / RFU VCAN (11755009_s_at) / Fold change /veh VCAN (11755009_s_at) / RFU RHOB (11743442_s_at) / Fold change /veh RHOB (11743442_s_at) / RFU RGS16 (11720943_a_at) / Fold change /veh RGS16 (11720943_a_at) / RFU RGS16 (11720944_at) / Fold change /veh RGS16 (11720944_at) / RFU, VPS4B / Fold change vs veh, VPS4B / RFU, CREB1 / Fold change vs veh, CREB1 / RFU, DNAJC13 / Fold change vs veh, DNAJC13 / RFU, GNAQ / Fold change vs veh, GNAQ / RFU, CDK5R1 / Fold change vs veh, CDK5R1 / RFU, ZRANB3 / Fold change vs veh, ZRANB3 / RFU, CUL4A / Fold change vs veh, CUL4A / RFU, CCNY / Fold change vs veh, CCNY / RFU, UFL1 / Fold change vs veh, UFL1 / RFU, COG3 / Fold change vs veh, COG3 / RFU, DIAPH2 / Fold change vs veh, DIAPH2 / RFU, SKA2 / Fold change vs veh, SKA2 / RFU, AFF3 / Fold change vs veh, AFF3 / RFU, LMF1 / Fold change vs veh, LMF1 / RFU, IPO11 / Fold change vs veh, IPO11 / RFU, DFFB / Fold change vs veh, DFFB / RFU, FOXP1 / Fold change vs veh, FOXP1 / RFU, CARD8 / Fold change vs veh, CARD8 / RFU, STRN3 / Fold change vs veh, STRN3 / RFU, ADK / Fold change vs veh, ADK / RFU, RASSF2 / Fold change vs veh, RASSF2 / RFU, WIPF1 / Fold change vs veh, WIPF1 / RFU, LARP1B / Fold change vs veh, LARP1B / RFU, RASA1 / Fold change vs veh, RASA1 / RFU, RB1 / Fold change vs veh, RB1 / RFU, PPFIA1 / Fold change vs veh, PPFIA1 / RFU, MAT2A / Fold change vs veh, MAT2A / RFU, CCT5 / Fold change vs veh, CCT5 / RFU, WDR92 / Fold change vs veh, WDR92 / RFU, CUX1 / Fold change vs veh, CUX1 / RFU, TTC7A / Fold change vs veh, TTC7A / RFU, TMEM135 / Fold change vs veh, TMEM135 / RFU, DEPTOR / Fold change vs veh, DEPTOR / RFU, CPM / Fold change vs veh, CPM / RFU, DNAJB6 / Fold change vs veh, DNAJB6 / RFU, CACNA2D3 / Fold change vs veh, CACNA2D3 / RFU, DTX4 / Fold change vs veh, DTX4 / RFU, TFCP2 / Fold change vs veh, TFCP2 / RFU, GMCL1 /// GMCL1P1 / Fold change vs veh, GMCL1 /// GMCL1P1 / RFU, AEBP2 / Fold change vs veh, AEBP2 / RFU, SNHG1 /// SNORD22 /// SNORD25 /// SNORD26 /// SNORD27 /// SNORD28 /// SNORD29 /// SNORD31 / Fold change vs veh, SNHG1 /// SNORD22 /// SNORD25 /// SNORD26 /// SNORD27 /// SNORD28 /// SNORD29 /// SNORD31 / Fold change (Aza/veh), C12orf56 (ProbeSet 11735607_a_at) / Fold change (ACY-1035/veh), C12orf56 (ProbeSet 11735607_a_at) / Fold change (Aza/veh), FGFR1OP (ProbeSet 11751329_s_at) / Fold change (ACY-1035/veh), FGFR1OP (ProbeSet 11751329_s_at) / Fold change (Aza/veh), VPS36 (ProbeSet 11739960_a_at) / Fold change (ACY-1035/veh), VPS36 (ProbeSet 11739960_a_at) / RFU SYPL1 (11715823_x_at) / Fold change /veh SYPL1 (11715823_x_at) / RFU IGFBP7 (11715501_s_at) / Fold change /veh IGFBP7 (11715501_s_at) / RFU REEP3 (11722064_at) / Fold change /veh REEP3 (11722064_at) / RFU IGLL1 (11728026_x_at) / Fold change /veh IGLL1 (11728026_x_at): dose or concentration left out as unconfirmed
# Details: ProbeSet 11733108_at; LIST D
structure (smiles),measurement,value
Nc1ncn([C@@H]2O[C@H](CO)[C@@H](O)[C@H]2O)c(=O)n1 [azacitidine],"Fold change vs veh, GNAQ",0.77

# — paper PMC5218480 (PLoS ONE, 2017)
